{"source": "patent US20230124361A1", "about": "“SMALL MOLECULE STING ANTAGONISTS” (CURADEV PHARMA PVT. LTD., priority 2020, published 2023)", "data": [{"target": "T1, STING (Homo sapiens, UniProt Q86WV6, G230A/H232R/R293Q/R71H)", "T1 construct": "host or cells: THP1-Dual cells (human THP-1 monocyte line with Lucia/SEAP reporters)", "T1 sequence (Q86WV6 whole entry R71H/G230A/H232R/R293Q)": "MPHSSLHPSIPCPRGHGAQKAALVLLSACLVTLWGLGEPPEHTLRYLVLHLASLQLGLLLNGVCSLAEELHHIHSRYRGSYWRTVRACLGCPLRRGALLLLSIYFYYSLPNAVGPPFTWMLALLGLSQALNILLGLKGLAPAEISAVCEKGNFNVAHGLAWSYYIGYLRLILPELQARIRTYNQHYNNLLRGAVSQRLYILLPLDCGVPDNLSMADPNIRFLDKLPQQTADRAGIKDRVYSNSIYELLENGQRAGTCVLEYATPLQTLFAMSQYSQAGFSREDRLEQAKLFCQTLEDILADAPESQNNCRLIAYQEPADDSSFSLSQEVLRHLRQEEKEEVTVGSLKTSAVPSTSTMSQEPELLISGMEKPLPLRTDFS", "assay": "Reporter gene expression assay in THP1-Dual cells (IRF pathway Lucia luciferase, 2',3'-cGAMP stimulation)", "format": "cell-based", "settings": "10 min preincubation, 5 μM 2',3'-cGAMP, 20 hr, IRF reporter QUANTI-Luc, read-out: THP-1 (HAQ) Activity", "experimental": "Reporter Gene Expression Assay in THP-1 Cells\nTHP1-Dual™ cells (Invivogen) were derived from the human THP-1 monocyte cell line by stable integration of two inducible reporter constructs. As a result, THP1-Dual™ cells allow the simultaneous study of the IRF pathway, by assessing the activity of a secreted luciferase (Lucia) and the NF-κB pathway, by monitoring the activity of secreted SEAP. 5×10^4 THP1-Dual™ cells were seeded in 384-well plates in growth medium and preincubated with novel compounds for 10 minutes followed by stimulation with 5 μM 2′,3′-cGAMP. After 20 hr of stimulation the supernatant was removed and the IRF pathway reporter protein was readily measured in the cell culture supernatant using QUANTI-Luc™ (Invivogen), a luciferase detection reagent on a Spectramax i3X luminometer.\nIn the tables below, IC50 value ranges for exemplary compounds are given. The IC50 ranges are indicated as “A” for values less than or equal to 1 μM, “B” for values greater than 1 μM and less than or equal to 10 μM, and “C” for values greater than 10 μM.", "units": {"IC50": "µM"}, "values": [{"smiles": "NC(=O)C1COc2ccc(NC(=O)Nc3ccc4cc[nH]c4c3)cc2N1Cc1ccccc1", "note": "(stereo not shown) [Example 83]", "IC50": "1 to 10"}, {"smiles": "O=C(Nc1ccc2c(c1)OCC(=O)N2Cc1ccccc1C(F)(F)F)Nc1ccc2cc[nH]c2c1", "note": "[Example 113, 1-(1H-indol-6-yl)-3-(3-oxo-4-(2-(trifluoromethyl)benzyl)-3,4-dihydro-2H-benzo[b][1,4]oxazin-7-yl)urea]", "IC50": "1 to 10"}, {"smiles": "NC(=O)c1ccccc1CN1C(=O)COc2cc(NC(=O)Nc3ccc4cc[nH]c4c3)ccc21", "note": "[Example 144, 2-((7-(3-(1H-indol-6-yl)ureido)-3-oxo-2,3-dihydro-4H-benzo[b][1, 4]oxazin-4-yl)methyl) benzamide]", "IC50": "1 to 10"}, {"smiles": "NC(=O)c1cc2c(cc1NC(=O)Nc1ccc3cc[nH]c3c1)OCC(=O)N2Cc1ccccc1", "note": "[Example 165, 7-(3-(H-indol-6-yl)ureido)-4-benzyl-3-oxo-3,4-dihydro-2H-benzo[b][1, 4]oxazine-6-carboxamide]", "IC50": "1 to 10"}, {"smiles": "O=C(Nc1ccc2c(c1)N(c1ccccc1)C(=O)CO2)Nc1ccc2cc[nH]c2c1", "note": "[Example 183, 1-(1H-indol-6-yl)-3-(3-oxo-4-phenyl-3,4-dihydro-2H-benzo[b][1,4]oxazin-6-yl)urea]", "IC50": "> 10"}, {"smiles": "O=C(Nc1ccc2c(c1)OCC(=O)N2Cc1ccc(F)cc1Cl)Nc1ccc2cc[nH]c2c1", "note": "[Example 94, 1-(4-(2-chloro-4-fluorobenzy 1)-3-oxo-3,4-dihydro-2H-benzo[b][1,4]oxazin-7-yl)-3-(1H-indol-6-yl)urea]", "IC50": "≤ 1"}, {"smiles": "O=C(Nc1ccc2c(c1)OCC(=O)N2Cc1ccccn1)Nc1ccc2cc[nH]c2c1", "note": "[Example 149, 1-(iH-indol-6-yl)-3-(3-oxo-4-(pyridin-2-ylmethyl)-3,4-dihydro-2H-benzo[b][1, 4]oxazin-7-yl)urea]", "IC50": "1 to 10"}, {"smiles": "O=C(Nc1ccc2c(c1)SCC(=O)N2Cc1c(F)cccc1Cl)Nc1ccc2cc[nH]c2c1", "note": "[Example 89, 1-(4-(2-chloro-6-fluorobenzyl)-3-oxo-3,4-dihydro-2H-benzo[b][1, 4]thiazin-7-yl)-3-(1H-indol-6-yl)urea]", "IC50": "≤ 1"}, {"smiles": "O=C(Nc1ccc2c(c1)OCC(=O)N2c1ccccc1)Nc1ccc2cc[nH]c2c1", "note": "[Example 75, 1-(1H-Indol-6-yl)-3-(3-oxo-4-phenyl-3,4-dihydro-2H-benzo[b][1,4]oxazin-7-yl)urea]", "IC50": "1 to 10"}, {"smiles": "N#CCN1C(=O)COc2cc(NC(=O)Nc3ccc4cc[nH]c4c3)ccc21", "note": "[Example 157, 1-(4-(cyanomethyl)-3-oxo-3,4-dihydro-2H-benzo[b][1, 4]oxazin-7-yl)-3-(1H-indol-6-yl)urea]", "IC50": "1 to 10"}, {"smiles": "O=C(Nc1ccc2c(c1)OCCN2Cc1ccccc1)Nc1ccc2cc[nH]c2c1", "note": "[Example 62, 1-(4-Benzyl-3,4-dihydro-2H-benzo[b][1,4]oxazin-7-yl)-3-(1H-indol-6-yl)urea]", "IC50": "> 10"}, {"smiles": "O=C(Nc1ccc2c(c1)OCC(=O)N2Cc1ccon1)Nc1ccc2cc[nH]c2c1", "note": "[Example 164, 1-(1H-indol-6-yl)-3-(4-(isoxazol-3-ylmethyl)-3-oxo-3,4-dihydro-2H-benzo[b][1, 4]oxazin-7-yl)urea]", "IC50": "1 to 10"}, {"smiles": "O=C(Nc1ccc2c(c1)N(C(CO)c1ccccc1)CCO2)Nc1ccc2cc[nH]c2c1", "note": "(stereo not shown) [Example 85, 1-(4-(2-Hydroxy-1-phenylethyl)-3,4-dihydro-2H-benzo[b][1,4]oxazin-6-yl)-3-(1H-indol-6-yl)urea]", "IC50": "1 to 10"}, {"smiles": "CC1(C)Oc2cc(NC(=O)Nc3ccc4cc[nH]c4c3)ccc2N(Cc2ccccc2)C1=O", "note": "[Example 90, 1-(4-benzyl-2,2-dimethyl-3-oxo-3,4-dihydro-2H-benzo[b][1, 4]oxazin-7-yl)-3-(1H-indol-6-yl)urea]", "IC50": "1 to 10"}, {"smiles": "O=C(Nc1ccc2c(c1)OCC(=O)N2CCc1ccccc1Cl)Nc1ccc2cc[nH]c2c1", "note": "[Example 110, 1-(4-(2-chlorophenethyl)-3-oxo-3,4-dihydro-2H-benzo[b][1,4]oxazin-7-yl)-3-(1H-indol-6-yl)urea]", "IC50": "1 to 10"}, {"smiles": "O=C(Nc1ccc2c(c1)OCCN2Cc1c(F)cccc1Cl)Nc1ccc2cc[nH]c2c1", "note": "[Example 170, 1-(4-(2-chloro-6-fluorobenzyl)-3,4-dihydro-2H-benzo[b][1, 4]oxazin-7-yl)-3-(1H-indol-6-yl)urea]", "IC50": "1 to 10"}, {"smiles": "O=C(Nc1ccc2c(c1)OCC(=O)N2Cc1ccc(SC(F)(F)F)cc1)Nc1ccc2cc[nH]c2c1", "note": "[Example 106, 1-(1H-indol-6-yl)-3-(3-oxo-4-(4-((trifluoromethyl)thio)benzyl)-3,4-dihydro-2H-benzo[b][1,4]oxazin-7-yl)urea]", "IC50": "≤ 1"}, {"smiles": "O=C(Nc1cccnc1)Nc1ccc2c(c1)N(Cc1ccccc1)C(=O)CS2", "note": "[Example 4, 1-(4-benzyl-3-oxo-3,4-dihydro-2H-benzo[b][1, 4]thiazin-6-yl)-3-(pyridin-3-yl)urea]", "IC50": "1 to 10"}, {"smiles": "O=C(Nc1ccc2c(c1)OCC(=O)N2Cc1cnc[nH]1)Nc1ccc2cc[nH]c2c1", "note": "[Example 162, 1-(4-((1H-imidazol-5-yl)methyl)-3-oxo-3,4-dihydro-2H-benzo[b][1, 4]oxazin-7-yl)-3-(1H-indol-6-yl)urea]", "IC50": "> 10"}, {"smiles": "CN1CCSc2ccc(NC(=O)Nc3ccc4cc[nH]c4c3)cc21", "note": "[Example 168, 1-(1H-indol-6-yl)-3-(4-methyl-3,4-dihydro-2H-benzo[b][1, 4]thiazin-6-yl)urea]", "IC50": "> 10"}, {"smiles": "O=C(Nc1ccc2c(c1)OCC(=O)N2Cc1ccncn1)Nc1ccc2cc[nH]c2c1", "note": "[Example 160, 1-(1H-indol-6-yl)-3-(3-oxo-4-(pyrimidin-4-ylmethyl)-3,4-dihydro-2H-benzo[b][1, 4]oxazin-7-yl)urea]", "IC50": "1 to 10"}, {"smiles": "O=C(Nc1ccc2c(c1)OCC(=O)N2Cc1ccccc1)Nc1ccn(-c2ccccc2)n1", "note": "[Example 138, 1-(4-benzyl-3-oxo-3,4-dihydro-2H-benzo[b][1, 4]oxazin-7-yl)-3-(1-phenyl-1H-pyrazol-3-yl)urea]", "IC50": "> 10"}, {"smiles": "O=C(Nc1ccc2c(c1)N(Cc1ccccc1)CC2)Nc1ccc2cc[nH]c2c1", "note": "[Example 74, 1-(1-Benzylindolin-6-yl)-3-(1H-indol-6-yl)urea]", "IC50": "1 to 10"}, {"smiles": "O=C(Nc1ccc2c(c1)N(Cc1noc3ccccc13)C(=O)CS2)Nc1ccc2cc[nH]c2c1", "note": "[Example 24, 1-(4-(benzo[d]isoxazol-3-ylmethyl)-3-oxo-3,4-dihydro-2H-benzo [b][1,4]thiazin-6-yl)-3-(1H-indol-6-yl)urea]", "IC50": "1 to 10"}, {"smiles": "NC(=O)c1cccc(CN2C(=O)COc3cc(NC(=O)Nc4ccc5cc[nH]c5c4)ccc32)c1", "note": "[Example 98, 3-((7-(3-(1H-indol-6-yl)ureido)-3-oxo-2,3-dihydro-4H-benzo[b][1,4]oxazin-4-yl)methyl)benzamide]", "IC50": "1 to 10"}, {"smiles": "COc1cc(F)c(CN2C(=O)CSc3cc(NC(=O)Nc4ccc5cc[nH]c5c4)ccc32)c(F)c1", "note": "[Example 126, 1-(4-(2,6-difluoro-4-methoxybenzyl)-3-oxo-3,4-dihydro-2H-benzo[b][1, 4]thiazin-7-yl)-3-(1H-indol-6-yl)urea]", "IC50": "≤ 1"}, {"smiles": "N#C/N=C(\\Nc1ccc2c(c1)N(Cc1ccccc1)C(=O)CS2)Nc1ccc2cc[nH]c2c1", "note": "[Example 192]", "IC50": "> 10"}, {"smiles": "O=C(Nc1ccc2c(c1)N(Cc1ccccc1)C(=O)CS2)Nc1c[nH]c2ccccc12", "note": "[Example 18, 1-(4-benzyl-3-oxo-3,4-dihydro-2H-benzo[b][1, 4]thiazin-6-yl)-3-(1H-indol-3-yl)urea]", "IC50": "≤ 1"}, {"smiles": "O=C(Nc1ccc(F)cc1)Nc1ccc2c(c1)N(Cc1ccccc1)CCS2", "note": "[Example 173, 1-(4-benzyl-3,4-dihydro-2H-benzo[b][1, 4]thiazin-6-yl)-3-(4-fluorophenyl) urea]", "IC50": "1 to 10"}, {"smiles": "O=C(Nc1ccc(F)cc1)Nc1ccc2c(c1)N(Cc1ccccc1)C(=O)CS2", "note": "[Example 3, 1-(4-benzyl-3-oxo-3,4-dihydro-2H-benzo[b][i, 4]thiazin-6-yl)-3-(4-fluorophenyl) urea]", "IC50": "1 to 10"}, {"smiles": "Cc1cc(CN2C(=O)COc3cc(NC(=O)Nc4ccc5cc[nH]c5c4)ccc32)ccc1F", "note": "[Example 108, 1-(4-(4-fluoro-3-methylbenzyl)-3-oxo-3,4-dihydro-2H-benzo[b][1,4]oxazin-7-yl)-3-(1H-indol-6-yl)urea]", "IC50": "≤ 1"}, {"smiles": "COC(=O)C(c1ccccc1)N1CCOc2ccc(NC(=O)Nc3ccc4cc[nH]c4c3)cc21", "note": "(stereo not shown) [Example 86]", "IC50": "1 to 10"}, {"smiles": "O=C(Nc1ccc2c(c1)NCC2)Nc1ccc2c(c1)OCC(=O)N2Cc1ccccc1", "note": "[Example 142, 1-(4-benzyl-3-oxo-3,4-dihydro-2H-benzo[b][1, 4]oxazin-7-yl)-3-(indolin-6-yl)urea]", "IC50": "1 to 10"}, {"smiles": "O=C(Nc1ccc2c(c1)N(Cc1ccncc1)CCS2)Nc1ccc2cc[nH]c2c1", "note": "[Example 66, 1-(1H-indol-6-yl)-3-(4-(pyridin-4-ylmethyl)-3,4-dihydro-2H-benzo[b][1, 4]thiazin-6-yl)urea]", "IC50": "≤ 1"}, {"smiles": "O=C(Nc1ccc2c(c1)OCC(=O)N2Cc1ccc2c(c1)OCO2)Nc1ccc2cc[nH]c2c1", "note": "[Example 114, 1-(4-(benzo[d][1,3]dioxol-5-ylmethyl)-3-oxo-3,4-dihydro-2H-benzo[b][1,4]oxazin-7-yl)-3-(1H-indol-6-yl)urea]", "IC50": "≤ 1"}, {"smiles": "O=C1COc2cc(NC(=O)Nc3ccc4cc[nH]c4c3)ccc2N1", "note": "[Example 88, 1-(1H-indol-6-yl)-3-(3-oxo-3,4-dihydro-2H-benzo[b][1, 4]oxazin-7-yl)urea]", "IC50": "> 10"}, {"smiles": "CN1Cc2ccc(NC(=O)Nc3ccc4cc[nH]c4c3)cc2N(Cc2ccccc2)C1=O", "note": "[Example 40]", "IC50": "1 to 10"}]}]}
